Experimental data taken from patent publication US8017638B2, “Isoxazole derivative and isothiazole derivative having inhibitory activity on 11β-hydroxysteroid dehydrogenase type 1” (Shionogi & Co., Ltd., priority 2006, dated 2011).

Legend:
[1] = biological target: recombinant mouse 11β-HSD1 (Mus musculus, UniProt P50172); assay: Enzyme activity assay on mouse 11β-HSD1 (HTRF, corticosterone production); type: biochemical; settings: recombinant mouse 11β-HSD1, 2 μM 11-dehydrocorticosterone as substrate, 2 hours at 37° C., read-out: mouseIC50
Protocol: Evaluation of 11β-HSD1 Inhibitors (Enzyme Activity Assay on Mouse 11β-HSD1)
Enzymatic activity for mouse 11β-HSD1 activity was determined in a 10 μl final volume of assay mixture containing 50 mM sodium phosphate buffer (pH 7.6), 1 mg/ml bovine serum albumin, 0.42 mg/ml NADPH, 1.26 mg/ml glucose-6-phosphate, glucose-6-phosphate dehydrogenase, test compound, recombinant mouse 11β-HSD1, and 2 μM 11-dehydrocorticosterone as substrate. The reaction was started with the addition of 11-dehydrocorticosterone. After incubation for 2 hours at 37° C., 5 μl of europium cryptate-labelled anti-cortisol antibody and 5 μl of XL665-labeled cortisol were added. After further incubation for 2 hours at room temperature, the HTRF signal was measured. The corticosterone production was quantitated by a standard curve generated with several known concentrations of corticosterone in each assay.
(§1) The amount of corticosterone production without compounds served as control, and the percent inhibition by compound at each concentration was calculated. The IC50 value of the compound for 11β-HSD1 was obtained using the inhibition curve generated by plotting the percent inhibition versus the concentration of test compound.

[2] = biological target: recombinant human 11β-HSD1 (Homo sapiens, UniProt P28845); assay: Enzyme activity assay on human 11β-HSD1 (HTRF, cortisol production); type: biochemical; settings: recombinant human 11β-HSD1, 5 μM cortisone as substrate, 2 hours at 37° C., read-out: humanIC50
Protocol: Evaluation of 11β-HSD1 Inhibitors (Enzyme Activity Assay on Human 11β-HSD1)
Enzymatic activity for human 11β-HSD1 was determined in a 10 μl final volume of assay mixture containing 50 mM sodium phosphate buffer (pH 7.6), 1 mg/ml bovine serum albumin, 0.42 mg/ml NADPH, 1.26 mg/ml glucose-6-phosphate, glucose-6-phosphate dehydrogenase, test compound, recombinant human 11β-HSD1, and 5 μM cortisone as substrate. The reaction was started with the addition of cortisone. After incubation for 2 hours at 37° C., 5 μl of europium cryptate-labelled anti-cortisol antibody and 5 μl of XL665-labeled cortisol were added. After further incubation for 2 hours at room temperature, the homogeneous time-resolved fluorescence (HTRF) signal was measured. The cortisol production was quantitated by a standard curve generated with several known concentrations of cortisol in each assay.
as §1, with “amount of cortisol production without” for “amount of corticosterone production without”, “inhibition by test compound at” for “inhibition by compound at”

recombinant human 11β-HSD1, sequence (P28845 whole entry): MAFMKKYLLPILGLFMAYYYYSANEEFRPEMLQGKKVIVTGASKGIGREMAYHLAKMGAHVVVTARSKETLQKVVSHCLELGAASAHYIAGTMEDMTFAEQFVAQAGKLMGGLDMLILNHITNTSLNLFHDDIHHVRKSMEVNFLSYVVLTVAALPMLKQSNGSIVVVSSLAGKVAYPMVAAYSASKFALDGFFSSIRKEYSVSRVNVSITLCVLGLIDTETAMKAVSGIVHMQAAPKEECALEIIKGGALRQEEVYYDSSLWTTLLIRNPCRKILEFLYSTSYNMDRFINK
recombinant mouse 11β-HSD1, sequence (P50172 whole entry): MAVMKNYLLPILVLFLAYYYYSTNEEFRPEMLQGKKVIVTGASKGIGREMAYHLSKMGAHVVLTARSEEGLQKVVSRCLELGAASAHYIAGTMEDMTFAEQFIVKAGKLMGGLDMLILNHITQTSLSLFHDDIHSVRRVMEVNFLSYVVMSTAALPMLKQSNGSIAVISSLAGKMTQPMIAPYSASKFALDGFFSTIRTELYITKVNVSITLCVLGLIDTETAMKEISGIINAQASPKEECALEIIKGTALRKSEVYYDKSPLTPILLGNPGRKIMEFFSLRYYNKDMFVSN

Row | Structure (SMILES) | IC50 [1] | IC50 [2]
1 | CC(C)Sc1c(OCC2CCNCC2)noc1C(=O)NC1C2CCCC1CCC2 (stereo not drawn) [Compound 12b] | 1.6 µM | 0.14 µM
2 | CC(C)Sc1c(OCC(C)(C)C(=O)N2CCNCC2)noc1C(=O)NC1C2CC3CC(C2)CC1C3 (stereo not drawn) [II-18] | 0.049 µM | 0.035 µM
3 | O=C(NC1(COc2noc(C(=O)N[C@H]3C4CC5CC3C[C@](O)(C5)C4)c2SC2CCCC2)CC1)c1ccc(Cl)cc1Cl [II-150] | 0.027 µM | 0.01 µM
4 | CC(C)Sc1c(OCC(C)(C)NC(=O)NCCN)noc1C(=O)NC1C2CC3CC(C2)CC1C3 (stereo not drawn) [Compound 27] | 0.038 µM | 0.26 µM
5 | CC(C)Sc1c(OCC(C)(C)NC(=O)C2(N)CC2)noc1C(=O)NC1C2CC3CC(C2)CC1C3 (stereo not drawn) [II-49] | 0.023 µM | 0.071 µM
6 | CC(C)(COc1noc(C(=O)N[C@H]2C3CC4CC2C[C@](O)(C4)C3)c1SC1CCCC1)N1CCOC1=O [II-153] | 0.014 µM | 0.025 µM
7 | CCCSc1c(OCC2CCNCC2)noc1C(=O)NC1C2CC3CC(C2)CC1C3 (stereo not drawn) [Compound 9c] | 0.5 µM | 0.18 µM
8 | CC(C)CSc1c(OCC(C)(C)CCCN)noc1C(=O)NC1C2CC3CC(C2)CC1C3 (stereo not drawn) [II-72] | 0.0065 µM | 0.077 µM
9 | CC(C)Sc1c(OCC(F)(F)C(=O)NCCN)noc1C(=O)NC1C2CC3CC(C2)CC1C3 (stereo not drawn) [II-25] | 0.16 µM | 0.051 µM
10 | COCC(C)(C)COc1noc(C(=O)NC2C3CC4CC(C3)CC2C4)c1SC(C)C (stereo not drawn) [II-117] | 0.021 µM | 0.095 µM
11 | CC(C)Sc1c(OCC(C)(C)C#N)noc1C(=O)N[C@H]1C2CC3CC1C[C@](O)(C3)C2 [II-130] | 0.033 µM | 0.086 µM
12 | CC(C)Sc1c(OCC(C)(C)N)noc1C(=O)NC1C2CC3CC(C2)CC1C3 (stereo not drawn) [Compound 29] | 0.33 µM | 0.043 µM
